Experimental data reported in patent publication US10045972B2, “Hydroxypyridone derivatives, pharmaceutical compositions thereof, and their therapeutic use for treating inflammatory, neurodegenerative, or immune-mediated diseases” (BioTheryX, Inc., priority 2014, dated 2018).
Entries after “also recorded” stand apart in the source; their conditions may differ.

What was measured:
MO3-13 cells [1] = assay: Protection of differentiated MO3-13 cells against TNF-α toxicity (Kinetic Apoptosis Kit, live cell fluorescence microscopy); type: cell-based; conditions: 1 μM ciclopirox with human TNF-α protein 30 ng/mL; images after 1, 15 and 72 hrs, FIG. 3
Experimental: The protective effects of ciclopirox on MO3-13 cells against TNF-α toxicity was also determined. MO3-13 cells were grown in 6 well dishes and allowed to adhere overnight. Cells were grown to 70% confluence and then differentiated into oligodendrocyte-like cells by removal of FBS from DMEM medium for 48 hrs. Cells were treated with vehicle (no treatment); human TNF-α protein (30 ng/mL); 1 μM ciclopirox; and a combination of 1 μM ciclopirox and human TNF-α protein (30 ng/mL). Cells were treated with Abcam's Kinetic Apoptosis Kit (Microscopy) prior to live cell fluorescence microscopy imaging using an inverted Zeiss epi-fluorescent microscope. Merged images of phase contrast, green (pSIVA-IANBD) and red (PI) fluorescence were captured after 1 hr, 15 and 72 hrs in cell culture.

[2] = system: myelin basic protein (MBP) in MO3-13 cells; assay: Induction of myelin basic protein (MBP) production in MO3-13 cells (slot blot, anti-MBP); type: cell-based, human
Experimental: Dilutions (0.1 mg/mL) of MO3-13 whole cell extracts were prepared and the proteins (5 μg) from the dilutions were blotted onto nitrocellulose membrane using a slot blotter. The non-protein sites on the blot were blocked with 2% ECL block in PBS-Tween20. Primary […] was diluted in block solution at 300×. The primary antibody was incubated overnight at 4° C. with gentle shaking. The following day the blot was developed using enhanced ECL (GE Healthcare) method. Image of bound antibody were captured using Image Lab software driving a Bio-Rad ChemiDoc XRS+ image capture system.

MO3-13 cells [3] = assay: Protection of MO3-13 cells from cuprizone toxicity (phase contrast); type: cell-based, human; conditions: compound 5 μM, cuprizone 50 μM, 24 hrs, FIG. 5
Experimental: The protective effects of compound A1 on MO3-13 cells from cuprizone toxicity was then determined. […] Cuprizone at a final concentration of 50 μM was solubilized in 100% ethanol was added to selected dishes with and without compound A1 (5 μM) in DMSO.

[4] = system: human oligodendrocytes (MO3-13); assay: TNF-α toxicity on MO3-13 cells and protection (Trypan blue cell counts); type: cell-based; conditions: cells exposed to LD50 human TNF-α protein, FIG. 2
Experimental: MO3-13 cells were grown in 6 well dishes (100,000 cells per dish) and allowed to adhere overnight. Cells were treated with increasing amounts of human recombinant TNF-α protein (Abcam Ab9642). Cells either treated with increasing amounts of TNF-α protein or with vehicle (PBS) were allowed to grow for additional 24 hrs, after which MO3-13 cells were trypsinized and counted using Trypan blue and a Nebauer hemocytometer. Mean cell counts were plotted graphically against TNF-α concentrations. The LD50 of human TNF-α was determined to be 30 ng/mL on MO3-13 cells. The protective effects of compound A1 on MO3-13 cells that were exposed to LD50 human TNF-α protein were then determined and the results are shown in FIG. 2.

[5] = system: primary human oligodendrocytes; assay: Protection from cuprizone toxicity, primary human oligodendrocytes, live cell images; conditions: 24 hrs, FIG. 7
Experimental: Cells were weaned off with fetal bovine serum containing differentiation medium (Celprogen) up to 25 days in culture. The cells were exposed to either no treatment (Vehicles=ethanol and DMSO); compound A1 ranging in dosage of 2, 5 and 10 μM; cuprizone (50 μM) (Sigma Aldrich) or a combination of compound A1 and cuprizone (50 μM). Cells were treated for 24 hrs, after which images were captured of live cells using an inverted Zeiss microscope.

[6] = system: primary mouse oligodendrocytes; assay: Protection from cuprizone toxicity, primary mouse oligodendrocytes, MITOTRACKER and immunocytochemistry; type: cell-based; conditions: MITOTRACKER (red) and beta-catenin (green), FIG. 6
Experimental: (§1) Stock MITOTRACKER® (Molecular Probes) was diluted with DMSO to a final concentration of 1 mM. MITOTRACKER® (100 nM) was incubated with the live cells at 37° C. for 30 min. MITOTRACKER® labeling of mitochondria was assessed using a Zeiss inverted microscope. Following MITOTRACKER® treatment, cells were processed for immunocytochemistry. Cells grown on mouse oligodendrocyte extracellular matrix coated cover slips (Celprogen) were fixed with fixing solution containing 0.1% gluteraldehyde, 2% paraformaldehyde, 80 mM Pipes, 5 mM EGTA, pH 8.0, 1 mM MgCl2, and 0.5% Triton-X100. The cells were fixed for 7 min at 37° C. The cells on cover slips were washed and then blocked with 2% bovine serum albumin (BSA) for 1 hr. Primary antibodies were diluted in 2% BSA and incubated on the cover glass for 1 hr in a humid chamber. Following incubation, cover slips were washed and then incubated for 1 hr with species-specific secondary antibodies conjugated with fluorescent label or with biotin. After washing, slides were incubated with streptavidin conjugated with fluorescein fluorescent labels for 40 min. Cover slips were washed again and mounted with DABCO mountant. Fluorescently labeled cells were visualized with a Zeiss epi-fluorescent microscope. Data collected was for MITOTRACKER® (red channel) and beta-catenin (green channel).

[7] = system: TNF-α secretion from human primary glioblastoma cells (U87); assay: Reduction of TNF-α secretion from U87 cells (slot blot of conditioned media); type: cell-based; conditions: compound at 10 μM, 48 hrs, FIG. 1
Experimental: TNF-α secretion was measured using U87 cell line. Cells were distributed into 6 well dishes and allowed to adhere overnight. When cells were confluent, they were treated with 6-cyclohexyl-1-hydroxy-4-methyl-1H-pyridine-2-thione A1 at 10 μM in each dish, wherein compound A1 was solubilized in neat DMEM. Cells were exposed to the compound for 48 hrs. Conditioned media was collected and assayed for TNF-α using mouse monoclonal to TNF-α (Abcam 52B83, Cambridge, Mass.). Conditioned media (100 μL) was applied to each slot. The nitrocellulose filter membrane was blocked with ECL advanced block (2% in Tris buffered saline with Tween-20 (0.05%)) for 1 hr with gentle shaking at room temperature. Primary mouse anti-TNF-α (Abcam 52B83) was diluted 1,000× in the blocking solution. Primary antibodies were applied to blots and incubated overnight at 4° C. with gentle shaking. Blots were developed using enhanced ECL (GE Healthcare) method. Images of bound antibodies were captured using Image Lab software driving a Bio-Rad ChemiDoc XRS+ image capture system.

[8] = system: primary human oligodendrocytes; assay: Protection from cuprizone toxicity, primary human oligodendrocytes, MITOTRACKER and immunocytochemistry; type: cell-based; conditions: MITOTRACKER (red), green channel, nuclei (blue), FIGS. 8 and 9
Experimental: as §1, with “MITOTRACKER®” for “Stock MITOTRACKER® (Molecular Probes) was diluted with DMSO to a final concentration of 1 mM. MITOTRACKER®”, “human” for “mouse”, “MBP” for “beta-catenin”, “channel). Nuclei are labeled with DAPI (blue channel).” for “channel).”

Cc1cc(C2CCCCC2)n(O)c(=O)c1 [ciclopirox]
protection of MO3-13 cells against TNF-α toxicity (MO3-13 cells [1]): protection; also recorded: protective up to 72 hrs

Cc1cc(C2CCCCC2)n(O)c(=S)c1 [compound A1, 6-cyclohexyl-1-hydroxy-4-methyl-1H-pyridine-2-thione]
MBP bound by anti-MBP (induction of MBP production) ([2]; MO3-13 cells treated with Cpz and compound, p<0.001, FIG. 10): induction of myelin basic protein (MBP) production; also recorded: significantly higher | MBP bound by anti-MBP ([2]; MO3-13 cells treated with compound alone, p<0.001, FIG. 10): significantly higher | protection of MO3-13 cells against cuprizone toxicity (MO3-13 cells [3]): protection | protection of MO3-13 cells against TNF-α toxicity [4]: protection | protection of primary human oligodendrocytes against cuprizone toxicity ([5]; compound 2, 5 and 10 μM with cuprizone 50 μM, live cell images): protection; also recorded: appears to be protective at various dosings | protection of primary mouse oligodendrocytes against cuprizone toxicity [6]: protection | reduction of TNF-α secretion [7]: reduction of TNF-α secretion | protection of primary human oligodendrocytes against cuprizone toxicity [8]: protection

O=C(NN=C1CCCCC1)C(=O)NN=C1CCCCC1 [cuprizone, reference compound]
anti-MBP antibody binding compared with non-treated (NT) cells ([2]; MO3-13 cells treated with Cpz alone, FIG. 10): reduced anti-MBP antibody binding | toxicity of cuprizone to primary human oligodendrocytes ([5]; cuprizone 50 μM alone): toxic
